Measurements reported in patent publication US9849154B2, “Synergistic combination of alanine-glutamine, hyaluronic acid and oat extract and the use thereof in a composition intended for healing wounds and repairing skin lesions” (PIERRE FABRE DERMO-COSMETIQUE, priority 2013, dated 2017).
Residues, ends and D or L forms follow the SMILES beside them.

Tested on: HaCaT human keratinocyte line
Assay: Oris Cell Migration Assay: migration of keratinocytes
Assay type: cell-based
Conditions: DMEM 0% FCS; for % Migration (control 0% FCS = 100) / Average ± SD (fluorescence intensity, FI): 24 h
Source text: The objective of this test was to evaluate the effect of hyaluronic acid, oat seedling extract, L-alanyl-L-glutamine and combinations thereof on the migration of keratinocytes using the Oris Cell Migration Assay kit (Platypus Technologies).
The spontaneously immortalised HaCaT human keratinocyte line, frequently cited as reference model in the literature was used.
The protocol used for the study of cell migration is based on the use of a 96 well kit, the Oris Cell Migration Assay (Platypus technologies—TEBU), enabling the miniaturisation and the quantification of this cellular process.
The principle of this test consists in studying cell migration towards the centre of the wells of the 96 well plate. It consists in placing a stopper in the wells, in order to create a 2 mm diameter detection zone. Then removing the stoppers once cells have properly adhered to the surface around them, and thus to enable cells to migrate towards the detection zone. The plates without stoppers and with the active ingredients are incubated at 37° C. for 24 hours in DMEM (Dulbecco's Modified Eagle Medium) 0% FCS (foetal calf serum). The quantity of cells situated in the zone where the stopper was is analysed in order to evaluate the migration of the cells. A mask makes it possible to visualise and to count uniquely the cells situated in this zone. For each condition, the average is determined on 6 to 8 wells.
The cells were incubated in FCS-free medium.
• EGF: 33 ng/ml, • oat seedling extract: 10 or 30 μg/ml,
Filtering. Concentration by drying until a dry extract is obtained. • sodium hyaluronate (molecular weight 250-450 kDa): 20 or 60 μg/ml, • L-alanyl-L-glutamine: 40 or 90 μg/ml. Analysis of the Results
The Results are Expressed: • In fluorescence intensity (FI), proportional to the quantity of cells having migrated. • In percentage activity compared to the control 0% FCS.
[formula] Statistical Analyses
Statistical analyses by the Dunnett test were carried out on the crude migration values. This test then gives “p value” values characterising the significance of the results obtained for different conditions. The degree of significance was fixed at
The results at different concentrations of the effect of oat seedling extract, hyaluronic acid and L-alanyl-L-glutamine, alone or in combination on the migration of keratinocytes are indexed in tables 1 and 2 then represented in the single FIGURE. The fluorescence intensity values represented on this curve correspond to an average of 6 to 8 measurements carried out during an experiment representative of 3 independent manipulations.

| Compound | % Migration (control 0% FCS = 100) (Table 1, EGF 33 ng/ml) | Average ± SD (fluorescence intensity, FI) (Table 1, EGF 33 ng/ml) | Average ± SD (fluorescence intensity, FI) (Table 2, EGF 33 ng/ml) | % Migration (control 0% FCS = 100) (Table 2, EGF 33 ng/ml, * p < 0.05 versus control) | effect on the migration of keratinocytes (in words) (positive control, EGF 33 ng/ml) | effect on the migration of keratinocytes (in words) (L-alanyl-L-glutamine alone, 40 or 90 μg/ml) | % Migration (control 0% FCS = 100) (Table 1, 40 μg/ml) | Average ± SD (fluorescence intensity, FI) (Table 1, 40 μg/ml) | % Migration (control 0% FCS = 100) (Table 2, 90 μg/ml) | Average ± SD (fluorescence intensity, FI) (Table 2, 90 μg/ml) |
| --- | --- | --- | --- | --- | --- | --- | --- | --- | --- | --- |
| EGF: EGF, positive control of the migration experiments, 33 ng/ml | 216% | 2569± | 3553 ± 1556 | 301 * % | induces the migration of keratinocytes |  |  |  |  |  |
| C[C@H](N)C(=O)N[C@@H](CCC(N)=O)C(=O)O [ALANYL GLUTAMINE, L-alanyl-L-glutamine] (H-Ala-Gln-OH) |  |  |  |  |  | induces the migration of keratinocytes in a concentration-dependent manner | 200% | 2471 ± 788 | 194% | 2586 ± 1092 |
